Target: T1, Gonadotropin-releasing hormone receptor (Homo sapiens, UniProt P30968)
T1 sequence (P30968 whole entry): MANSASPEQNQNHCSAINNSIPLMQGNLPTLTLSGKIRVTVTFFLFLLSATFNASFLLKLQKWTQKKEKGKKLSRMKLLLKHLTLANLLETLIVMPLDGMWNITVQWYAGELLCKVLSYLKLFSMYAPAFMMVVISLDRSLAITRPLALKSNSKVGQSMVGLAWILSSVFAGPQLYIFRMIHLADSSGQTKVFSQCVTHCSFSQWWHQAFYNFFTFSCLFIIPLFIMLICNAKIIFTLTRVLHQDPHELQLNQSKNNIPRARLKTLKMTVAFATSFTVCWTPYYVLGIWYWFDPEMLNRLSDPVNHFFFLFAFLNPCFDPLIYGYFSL
Assay: Inhibitory constant against cloned human Gonadotropin-releasing hormone receptor stably expressed in HEK293 cells was determined
Type: cell-based

| SMILES | Ki |
| --- | --- |
| N[C@@H](Cn1c(=O)n(Cc2c(F)cccc2F)c(=O)n(-c2ccc3nsnc3c2)c1=O)c1ccccc1 | 0.41 µM |
| COc1cccc(-n2c(=O)n(CCN(C)CCc3ccccn3)c(=O)n(Cc3c(F)cccc3F)c2=O)c1 | 4.2 µM |
| COc1cccc(-c2c(C)n(Cc3c(F)cccc3F)c(=O)n(C[C@@H](C)N(C)CCc3ccccn3)c2=O)c1 | 0.0011 µM |
| NC(Cc1c[nH]c2ccccc12)Cn1c(=O)n(Cc2c(F)cccc2F)c(=O)n(-c2c(F)cccc2F)c1=O (centres undefined) | 0.38 µM |
| N[C@@H](Cn1c(=O)n(Cc2c(F)cccc2F)c(=O)n(-c2c(F)cccc2F)c1=O)c1ccccc1 | 0.22 µM |
| N[C@@H](Cn1c(=O)n(Cc2c(F)cccc2F)c(=O)n(-c2ccccc2F)c1=O)c1ccccc1 | 0.089 µM |
| COc1cccc(-c2c(C)n(CCN(C)CCc3ccccn3)c(=O)n(Cc3c(F)cccc3F)c2=O)c1 | > 20 µM |
| COc1cccc(-n2c(=O)n(Cc3c(F)cccc3F)c(=O)n(CC(N)c3ccccc3)c2=O)c1 (centres undefined) | 0.12 µM |
| COc1cccc(-n2c(=O)n(Cc3c(F)cccc3F)c(=O)n(C[C@H](N)c3ccccc3)c2=O)c1 | 0.037 µM |

— ChEMBL document CHEMBL1144289, “A convenient one-pot synthesis of asymmetric 1,3,5-triazine-2,4,6-triones and its application towards a novel class of gonadotropin-releasing hormone receptor antagonists” (Bioorg Med Chem Lett, 2005)
